Laboratory results published in ChEMBL document CHEMBL1150731, “Constituents of Tritonia crocosmaeflora, II. Tricrozarin B, an antitumor naphthazarin derivative” (J Nat Prod, 1987).
Values after ≈ are worked out from the molar mass of the structure shown.

Legend:
[1] = Cytotoxicity against human HeLaS3 cells; format: functional, cell-based; conditions: HeLa S3
CCRF S-180 = test: Antitumor activity against mouse S180 cells xenografted ICR mouse at 50 mg/kg, ip relative to control; format: functional; conditions: route intraperitoneal

## COC1=C(OC)C(=O)c2c(O)c(OC)cc(O)c2C1=O [TRICROZARIN B]
[1]
  IC50: 7 ng/mL (≈ 0.025 µM)
CCRF S-180
  T/C: 146%
